From US11685744B2, “CDK inhibitors and their use as pharmaceuticals” (Prelude Therapeutics, Incorporated, priority 2020, dated 2023)
Like-named read-outs stand apart in the source and are kept apart here.

Tests used:
[1] = target: CDK6/Cyclin D1 (Homo sapiens (Human), UniProt Q00534); assay: CDK6/CyclinD1 enzymatic activity assay (TR-FRET); assay type: biochemical; conditions: ATP 250 μM, read-out: CDK6_D1 IC50
Method: CDK6/CyclinD1 Enzymatic Activity Assay
The inhibitory activity of compounds was evaluated in vitro using TR-FRET assay with white 384-well low volume microplate (Greiner Bio-One). CDK6/Cyclin D1 catalyzed phosphorylation of peptide in the presence and absence of compounds was measured and used in IC50 determination. Recombinant protein complex CDK6/Cyclin D1, expressed from insect cell, was purchased from ProQinase. Testing compounds were dissolved in DMSO at 0.1 mM and tested in 9-dose IC50 mode. The reaction mixture was prepared by mixing CDK6/Cyclin D1 (1 nM final), ULight-4E-BP1 (100 nM final, Perkinelmer, TRF0128-D), and ATP (250 μM final) in assay buffer (20 mM of HEPES pH 7.4, 1 mM of EGTA, 0.05% BSA, 0.005% Tween 20, and 1 mM TCEP). The compound of interest in DMSO was added to each well in 3-fold serial dilution by dispenser (TECAN D300E). After 20 minutes preincubation at room temperature, 0.1 μL MgCl2 (10 mM final) was added to initiate the reaction. Following a 60 minutes incubation at 37° C., the reaction was stopped by addition of 2 μL of quenching buffer consisting of Lance detection buffer (Perkinelmer CR97-100C), 2 nM LANCE Ultra Europium-anti-P-4E-BP1 (Perkinelmer, TRF0216-D), 10 mM EDTA, and incubate at room temperature for additional 60 minutes in dark. The reaction signal was measured by Envision multimode plate reader (PerkinElmer, 2102-0010). IC50 values were determined by fitting the data to the standard 4 parameters with Hill Slope using GraphPad Prism software.

[2] = test system: MCF7 adenocarcinoma cell line; assay: Cell proliferation studies in MCF7 cells (ATP-Lite, 10 days); assay type: cell-based; conditions: read-out: PROLIFERATION_CTG_MCF7 IC50
In short: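 Cells were seeded at 100 or 200 per well in DMEM with 10% FBS and dosed in quadruplicate over a 9-point 3-fold dilution. Incubation lasted 10 days at 37 °C, with media exchange and re-dosing on day 5. Viability was read by ATP-Lite luminescence and normalised to background and DMSO, giving IC50.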

[3] = target: CDK4/Cyclin D1 (Homo sapiens (Human), UniProt P11802); assay: CDK4/CyclinD1 enzymatic activity assay (TR-FRET); assay type: biochemical; conditions: ATP 2 mM, read-out: CDK4_D1 IC50
In short: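 Insect-cell CDK4/Cyclin D1 (1 nM) with ULight-4E-BP1 (100 nM) and 2 mM ATP in HEPES pH 7.4 buffer, preincubated 20 min with compound (9-dose, 3-fold dilutions); 10 mM MgCl2 started the reaction, run 60 min at 37 °C. EDTA/Eu-anti-phospho-4E-BP1 TR-FRET detection; IC50 from 4-parameter Hill fit.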

CDK4/Cyclin D1, sequence (P11802 whole entry): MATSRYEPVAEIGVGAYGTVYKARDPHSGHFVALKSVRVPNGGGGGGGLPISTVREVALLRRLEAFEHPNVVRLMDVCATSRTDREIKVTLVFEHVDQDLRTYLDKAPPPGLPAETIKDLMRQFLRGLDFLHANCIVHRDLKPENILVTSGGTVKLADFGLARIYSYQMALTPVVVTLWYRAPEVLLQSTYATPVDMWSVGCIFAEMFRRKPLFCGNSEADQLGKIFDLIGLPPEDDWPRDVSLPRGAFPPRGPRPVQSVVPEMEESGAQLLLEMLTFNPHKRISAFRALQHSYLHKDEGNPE
CDK4/Cyclin D1, sequence (P24385 whole entry partner): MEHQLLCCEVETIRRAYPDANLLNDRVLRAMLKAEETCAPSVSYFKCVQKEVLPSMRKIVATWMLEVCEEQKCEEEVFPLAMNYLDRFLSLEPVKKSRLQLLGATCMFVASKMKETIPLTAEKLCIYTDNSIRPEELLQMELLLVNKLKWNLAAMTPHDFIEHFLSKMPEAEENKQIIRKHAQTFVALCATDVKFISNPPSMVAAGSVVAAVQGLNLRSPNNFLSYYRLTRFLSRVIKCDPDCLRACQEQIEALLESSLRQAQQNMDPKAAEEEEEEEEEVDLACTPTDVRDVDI
CDK6/Cyclin D1, sequence (Q00534 whole entry): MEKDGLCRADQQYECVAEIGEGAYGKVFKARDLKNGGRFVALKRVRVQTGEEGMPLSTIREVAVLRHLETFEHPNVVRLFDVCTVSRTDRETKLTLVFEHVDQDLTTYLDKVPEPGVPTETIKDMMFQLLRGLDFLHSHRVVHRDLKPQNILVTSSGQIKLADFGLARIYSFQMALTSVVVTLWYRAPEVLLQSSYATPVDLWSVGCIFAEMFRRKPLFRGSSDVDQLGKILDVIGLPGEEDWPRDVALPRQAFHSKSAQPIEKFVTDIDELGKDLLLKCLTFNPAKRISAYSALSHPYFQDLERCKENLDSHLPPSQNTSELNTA
CDK6/Cyclin D1, sequence (P24385 whole entry partner): as the sequence (P24385 whole entry partner) above

Row | IC50 [1] | IC50 [2] | IC50 [3] | IC50 ([2]; Homo sapiens, 240 h) | Compound
1 | ≤ 20 nM | 20 to 200 nM | – | – | 4-(2,6-Dimethyl-3-propan-2-ylthieno[2,3-d]imidazol-5-yl)-N-[5-(4-ethyl-6,6-difluoro-1,4-diazepan-1-yl)pyridin-2-yl]-5-fluoropyrimidin-2-amine [Example 68]
2 | ≤ 20 nM | 20 to 200 nM | ≤ 20 nM | – | Cc1c(-c2nc(Nc3ccc(C4CCCN(C)C4)cn3)ncc2F)sc2c1ncn2C(C)C (single isomer, unassigned) [Example 126, 5-Fluoro-N-[5-[-1-methylpiperidin-3-yl]pyridin-2-yl]-4-(6-methyl-3-propan-2-ylthieno[2,3-d]imidazol-5-yl)pyrimidin-2-amine]
3 | 20 to 200 nM | – | ≤ 20 nM | 20 to 200 nM | CCN1CCN(c2ccc(Nc3ncc(F)c(-c4cc5nccc(C(C)(C)O)c5s4)n3)nc2)CC1 [Example 17, 2-[2-[2-[[5-(4-Ethylpiperazin-1-yl)pyridin-2-yl]amino]-5-fluoropyrimidin-4-yl]thieno[3,2-b]pyridin-7-yl]propan-2-ol]
4 | 20 to 200 nM | – | ≤ 20 nM | 20 to 200 nM | CCN1CCN(Cc2ccc(Nc3ncc(F)c(-c4sc5c(C6CCCC6)ccnc5c4Cl)n3)nc2)CC1 [Example 30, 4-(3-Chloro-7-cyclopentylthieno[3,2-b]pyridin-2-yl)-N-[5-[(4-ethylpiperazin-1-yl)methyl]pyridin-2-yl]-5-fluoropyrimidin-2-amine]
5 | – | – | 20 to 200 nM | > 2000 nM | Fc1cnc(Nc2ccc(N3CCOCC3)cn2)nc1-c1cc2nccc(C3CCCC3)c2s1 [Example 40, 4-(7-Cyclopentylthieno[3,2-b]pyridin-2-yl)-5-fluoro-N-(5-morpholinopyridin-2-yl)pyrimidin-2-amine]
6 | – | – | 200 to 2000 nM | > 2000 nM | Fc1cnc(Nc2ccc(N3CCC(F)(F)C3)cn2)nc1-c1cc2nccc(C3CCCC3)c2s1 [Example 41, 4-(7-Cyclopentylthieno[3,2-b]pyridin-2-yl)-N-[5-(3,3-difluoropyrrolidin-1-yl)pyridin-2-yl]-5-fluoropyrimidin-2-amine]
7 | – | – | 200 to 2000 nM | > 2000 nM | Fc1cnc(Nc2ccc(N3CCOCC3)cn2)nc1-c1cc2c(C3CCCC3)ccnc2s1 [Example 42, 4-(4-Cyclopentylthieno[2,3-b]pyridin-2-yl)-5-fluoro-N-(5-morpholin-4-ylpyridin-2-yl)pyrimidin-2-amine]
8 | – | – | 20 to 200 nM | 200 to 2000 nM | CN1CCC(c2ccc(Nc3ncc(F)c(-c4cc5c(C6CCCC6)ccnc5s4)n3)nc2)CC1 [Example 43, 4-(4-Cyclopentylthieno[2,3-b]pyridin-2-yl)-5-fluoro-N-(5-(1-methylpiperidin-4-yl)pyridin-2-yl)pyrimidin-2-amine]
9 | – | – | 20 to 200 nM | 200 to 2000 nM | CCN1CCN(c2ccc(Nc3ncc(F)c(-c4cc5c(C6CCCC6)ccnc5s4)n3)nc2)CC1 [Example 44, 4-(4-Cyclopentylthieno[2,3-b]pyridin-2-yl)-N-[5-(4-ethylpiperazin-1-yl)pyridin-2-yl]-5-fluoropyrimidin-2-amine]
10 | – | – | 20 to 200 nM | 200 to 2000 nM | CN1CCN(c2ccc(Nc3ncc(F)c(-c4cc5c(C6CCCC6)ccnc5s4)n3)nc2)CC1 [Example 45, 4-(4-Cyclopentylthieno[2,3-b]pyridin-2-yl)-5-fluoro-N-[5-(4-methylpiperazin-1-yl)pyridin-2-yl]pyrimidin-2-amine]
11 | – | – | 20 to 200 nM | 200 to 2000 nM | Fc1cnc(Nc2ccc(N3CCNCC3)cn2)nc1-c1cc2c(C3CCCC3)ccnc2s1 [Example 46, 4-(4-Cyclopentylthieno[2,3-b]pyridin-2-yl)-5-fluoro-N-(5-piperazin-1-ylpyridin-2-yl)pyrimidin-2-amine]
12 | – | – | 20 to 200 nM | 200 to 2000 nM | CCN1CC2(C1)CN(c1ccc(Nc3ncc(F)c(-c4cc5c(C6CCCC6)ccnc5s4)n3)nc1)C2 [Example 47, 4-(4-Cyclopentylthieno[2,3-b]pyridin-2-yl)-N-[5-(6-ethyl-2,6-diazaspiro[3.3]heptan-2-yl)pyridin-2-yl]-5-fluoropyrimidin-2-amine]
13 | – | – | 200 to 2000 nM | 200 to 2000 nM | Cc1c(-c2nc(Nc3ccc(N4CCN(C)CC4)cn3)ncc2F)sc2c(C3CCCC3)nccc12 [Example 48, 4-(7-Cyclopentyl-3-methylthieno[2,3-c]pyridin-2-yl)-5-fluoro-N-(5-(4-methylpiperazin-1-yl)pyridin-2-yl)pyrimidin-2-amine]
14 | – | – | 200 to 2000 nM | 200 to 2000 nM | Cc1c(-c2nc(Nc3ccc(C4CCN(C)CC4)cn3)ncc2F)sc2c(C3CCCC3)ncnc12 [Example 49, 4-(4-Cyclopentyl-7-methylthieno[3,2-d]pyrimidin-6-yl)-5-fluoro-N-(5-(1-methylpiperidin-4-yl)pyridin-2-yl)pyrimidin-2-amine]
15 | – | – | 20 to 200 nM | 200 to 2000 nM | CCN1CC2(C1)CN(c1ccc(Nc3ncc(F)c(-c4sc5c(C(C)C)nn(C)c(=O)c5c4C)n3)nc1)C2 [Example 63, 2-(2-((5-(6-Ethyl-2,6-diazaspiro[3.3]heptan-2-yl)pyridin-2-yl)amino)-5-fluoropyrimidin-4-yl)-7-isopropyl-3,5-dimethylthieno[2,3-d]pyridazin-4(5H)-one]
16 | 20 to 200 nM | – | 20 to 200 nM | – | Cc1c(-c2nc(Nc3ccccn3)ncc2F)sc2c1nc(C)n2C(C)C [Example 66, 4-(2,6-Dimethyl-3-propan-2-ylthieno[2,3-d]imidazol-5-yl)-5-fluoro-N-pyridin-2-ylpyrimidin-2-amine]
17 | – | – | ≤ 20 nM | 20 to 200 nM | Cc1c(-c2nc(Nc3ccc(N4CCN5CCC4CC5)cn3)ncc2F)sc2c(C(C)C)cn(C)c(=O)c12 [Example 83, 2-(2-((5-(1,4-Diazabicyclo[3,2.2]nonan-4-yl)pyridin-2-yl)amino)-5-fluoropyrimidin-4-yl)-7-isopropyl-3,5-dimethylthieno[3,2-c]pyridin-4(5H)-one]
18 | – | – | 20 to 200 nM | 200 to 2000 nM | CC(C)c1cn(C)c(=O)c2cc(-c3ccnc(Nc4ccc(C5CCN(C)CC5)cn4)n3)sc12 [Example 96, 7-Isopropyl-5-methyl-2-(2-((5-(1-methylpiperidin-4-yl)pyridine-2-yl)amino)pyrimidin-4-yl)thieno[3,2-c]pyridin-4(5H)-one]
19 | – | – | ≤ 20 nM | 20 to 200 nM | Cc1c(-c2nc(Nc3ccc(C4CC[N+](C)([O-])CC4)cn3)ncc2F)sc2c(C(C)C)cn(C)c(=O)c12 (stereo not shown) [Example 98, 4-(6-((5-Fluoro-4-(7-isopropyl-3,5-dimethyl-4-oxo-4,5-dihydrothieno[3,2-c]pyridin-2-yl)pyrimidin-2-yl)amino)pyridin-3-yl)-1-methylpiperidine 1-oxide]
20 | – | – | 20 to 200 nM | 200 to 2000 nM | CCN1CCN(Cc2ccc(Nc3ncc(F)c(-c4sc5c(C(C)C)[nH]nc5c4C)n3)nc2)CC1 [Example 100, N-(5-((4-Ethylpiperazin-1-yl)methyl)pyridin-2-yl)-5-fluoro-4-(3-isopropyl-6-methyl-2H-thieno[3,2-c]pyrazol-5-yl)pyrimidin-2-amine]
21 | – | – | ≤ 20 nM | 20 to 200 nM | CCN1CC2(C1)CN(c1ccc(Nc3ncc(F)c(-c4sc5c(C(C)(C)OC)n(C)nc5c4C)n3)nc1)C2 [Example 105, N-(5-(6-Ethyl-2,6-diazaspiro[3.3]heptan-2-yl)pyridin-2-yl)-5-fluoro-4-(3-(2-methoxypropan-2-yl)-2,6-dimethyl-2H-thieno[3,2-c]pyrazol-5-yl)pyrimidin-2-amine]
22 | – | – | 20 to 200 nM | 20 to 200 nM | CCN1CC2(C1)CN(c1ccc(Nc3ncc(F)c(-c4sc5c(nc(N(C)C)n5C(C)C)c4C)n3)nc1)C2 [Example 111, 5-(2-((5-(6-Ethyl-2,6-diazaspiro[3.3]heptan-2-yl)pyridin-2-yl)amino)-5-fluoropyrimidin-4-yl)-3-isopropyl-N,N,6-trimethyl-3H-thieno[2,3-d]imidazol-2-amine]
23 | – | 20 to 200 nM | ≤ 20 nM | – | Cc1c(-c2nc(Nc3ccc(C4CN(C)CCO4)cn3)ncc2F)sc2c1nc(C)n2C(C)C (stereo not shown) [Example 115, 5-Fluoro-4-(3-isopropyl-2,6-dimethyl-3H-thieno[2,3-d]imidazol-5-yl)-N-(5-(4-methylmorpholin-2-yl)pyridin-2-yl)pyrimidin-2-amine]
